In patent US10168342B2, “Lipid probes and uses thereof” (THE SCRIPPS RESEARCH INSTITUTE, priority 2015, dated 2019):
Read-outs that look alike come from different tables or passages of the source.

Experiments:
[1] = target: AEA-DA lipid probe targets in Neuro2a cells (Mus musculus, UniProt P20029)
[2] = target: T1, AEA-DA lipid probe targets in Neuro2a cells (Mus musculus, UniProt P62492)
T1 sequence (P62492 1-216): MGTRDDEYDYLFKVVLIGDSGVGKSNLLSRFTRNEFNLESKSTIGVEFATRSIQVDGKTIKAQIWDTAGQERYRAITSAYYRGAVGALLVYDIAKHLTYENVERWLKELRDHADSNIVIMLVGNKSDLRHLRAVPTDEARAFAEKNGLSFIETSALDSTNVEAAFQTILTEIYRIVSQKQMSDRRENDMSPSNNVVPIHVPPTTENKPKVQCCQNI

[3] = target: T2, AEA-DA lipid probe targets in Neuro2a cells (Mus musculus, UniProt Q8BJ71)
T2 sequence (Q8BJ71 1-819): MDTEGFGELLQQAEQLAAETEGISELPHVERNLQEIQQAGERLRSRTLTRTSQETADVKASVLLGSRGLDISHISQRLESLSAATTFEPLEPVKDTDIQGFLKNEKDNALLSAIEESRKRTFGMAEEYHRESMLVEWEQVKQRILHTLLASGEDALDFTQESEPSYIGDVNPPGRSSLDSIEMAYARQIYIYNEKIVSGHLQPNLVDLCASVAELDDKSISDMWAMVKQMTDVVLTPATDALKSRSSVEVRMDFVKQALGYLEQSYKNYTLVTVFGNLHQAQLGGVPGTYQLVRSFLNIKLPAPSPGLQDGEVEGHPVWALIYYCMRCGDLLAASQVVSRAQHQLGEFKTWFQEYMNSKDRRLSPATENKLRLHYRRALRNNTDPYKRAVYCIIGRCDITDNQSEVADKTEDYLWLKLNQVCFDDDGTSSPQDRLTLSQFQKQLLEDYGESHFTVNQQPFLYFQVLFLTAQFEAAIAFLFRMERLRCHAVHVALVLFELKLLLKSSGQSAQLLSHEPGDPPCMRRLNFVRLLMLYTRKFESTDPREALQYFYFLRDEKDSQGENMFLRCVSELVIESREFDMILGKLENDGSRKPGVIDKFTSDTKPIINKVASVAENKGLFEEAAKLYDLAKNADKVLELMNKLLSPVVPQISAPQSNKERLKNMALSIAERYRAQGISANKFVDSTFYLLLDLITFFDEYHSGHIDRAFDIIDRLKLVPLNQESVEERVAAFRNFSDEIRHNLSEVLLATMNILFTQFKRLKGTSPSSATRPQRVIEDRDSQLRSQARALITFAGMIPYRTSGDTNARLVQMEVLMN

[4] = target: T3, AEA-DA lipid probe targets in Neuro2a cells (Mus musculus, UniProt Q920A5)
T3 sequence (Q920A5 29-452): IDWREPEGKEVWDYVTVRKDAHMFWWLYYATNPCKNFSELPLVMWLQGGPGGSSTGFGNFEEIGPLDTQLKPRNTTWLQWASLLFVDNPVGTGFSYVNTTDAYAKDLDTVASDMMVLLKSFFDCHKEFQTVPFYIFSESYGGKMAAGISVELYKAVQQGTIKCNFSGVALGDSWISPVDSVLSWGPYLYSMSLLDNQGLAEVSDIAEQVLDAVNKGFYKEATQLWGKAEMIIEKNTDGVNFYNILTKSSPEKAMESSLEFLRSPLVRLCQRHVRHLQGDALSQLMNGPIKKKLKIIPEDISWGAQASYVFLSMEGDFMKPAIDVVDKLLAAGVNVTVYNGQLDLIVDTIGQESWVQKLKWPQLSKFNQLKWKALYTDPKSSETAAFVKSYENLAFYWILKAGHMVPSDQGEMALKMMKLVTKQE

[5] = target: T4, AEA-DA lipid probe targets in Neuro2a cells (Mus musculus, UniProt Q99J56)
T4 sequence (Q99J56 1-251): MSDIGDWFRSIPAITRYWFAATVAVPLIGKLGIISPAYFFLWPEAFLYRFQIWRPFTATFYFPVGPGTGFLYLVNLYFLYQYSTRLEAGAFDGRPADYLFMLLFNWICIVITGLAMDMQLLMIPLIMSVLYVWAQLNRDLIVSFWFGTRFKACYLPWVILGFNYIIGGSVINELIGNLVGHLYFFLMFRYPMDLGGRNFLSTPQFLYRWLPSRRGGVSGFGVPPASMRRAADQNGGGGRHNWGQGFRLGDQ

Sequence of AEA-DA lipid probe targets in Neuro2a cells (Mus musculus, UniProt P20029) (P20029 20-655): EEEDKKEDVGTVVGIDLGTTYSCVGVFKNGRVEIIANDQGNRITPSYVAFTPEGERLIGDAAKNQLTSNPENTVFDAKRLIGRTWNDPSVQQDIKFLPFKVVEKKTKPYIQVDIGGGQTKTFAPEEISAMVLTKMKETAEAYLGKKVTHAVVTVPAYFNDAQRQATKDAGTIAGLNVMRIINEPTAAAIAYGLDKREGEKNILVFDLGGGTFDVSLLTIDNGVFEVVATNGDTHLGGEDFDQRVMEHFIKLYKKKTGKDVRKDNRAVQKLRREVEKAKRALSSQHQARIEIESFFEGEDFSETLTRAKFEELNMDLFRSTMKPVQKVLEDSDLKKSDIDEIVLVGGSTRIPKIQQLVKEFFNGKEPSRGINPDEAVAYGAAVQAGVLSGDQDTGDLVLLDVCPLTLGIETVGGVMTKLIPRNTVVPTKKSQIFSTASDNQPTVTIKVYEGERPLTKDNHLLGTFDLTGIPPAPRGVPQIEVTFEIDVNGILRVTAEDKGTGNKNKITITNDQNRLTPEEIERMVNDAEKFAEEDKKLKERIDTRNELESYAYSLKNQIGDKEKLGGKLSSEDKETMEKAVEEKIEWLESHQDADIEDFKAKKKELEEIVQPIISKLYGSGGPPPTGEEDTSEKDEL

Row | Compound | SILAC ratio Hspa5 ([1]; competitor 25 μM) | SILAC ratio, Rab11a ([2]; competitor 25 μM) | SILAC ratio Nup93 ([3]; competitor 25 μM) | SILAC ratio Scpep1 ([4]; competitor 25 μM) | SILAC ratio, Derl1 ([5]; competitor 25 μM) | other results
1 | CCCCC/C=C\C/C=C\C/C=C\C/C=C\CCCC(=O)NCCO [AEA, anandamide, reference compound] |  |  |  |  |  | SILAC ratio Hspa5 ([1]; competitor 200 μM): 1.2; SILAC ratio, Rab11a ([2]; competitor 200 μM): 1.6; SILAC ratio Nup93 ([3]; competitor 200 μM): 1.2; SILAC ratio Scpep1 ([4]; competitor 200 μM): 1.0; SILAC ratio, Derl1 ([5]; competitor 200 μM): 1.8
2 | O=C(/C=C/c1cccnc1)NCCCCC1CCN(C(=O)c2ccccc2)CC1 [FK-866, reference compound] | 1.2 | 1.2 | 1.2 | 1.2 | 1.3 | 
3 | CN1CCN(C(=O)c2c(-c3ccccc3)c3cc([N+](=O)[O-])ccc3n2C)CC1 [KML110, (1-Methyl-5-nitro-3-phenyl-1H-indol-2-yl)(4-methylpiperazin-1-yl)methanone] | 1.4 | 1.6 | 1.4 | 1.6 | 1.2 | 
4 | CN1CCN(C(=O)c2[nH]c3ccc([N+](=O)[O-])cc3c2-c2ccccc2)CC1 [MJN228, (4-Methylpiperazin-1-yl)(5-nitro-3-phenyl-1H-indol-2-yl)methanone] | 1.4 | 1.6 | 1.1 | 1.4 | 1.4 | SILAC ratio Hspa5 ([1]; competitor 10 μM): 1.4; SILAC ratio Hspa5 ([1]; competitor 50 μM): 1.4; SILAC ratio Hspa5 ([1]; competitor 100 μM): 1.5; SILAC ratio, Rab11a ([2]; competitor 10 μM): 1.2; SILAC ratio, Rab11a ([2]; competitor 50 μM): 1.9; SILAC ratio, Rab11a ([2]; competitor 100 μM): 2.4; SILAC ratio Nup93 ([3]; competitor 10 μM): 0.9; SILAC ratio Nup93 ([3]; competitor 50 μM): 1.0; SILAC ratio Nup93 ([3]; competitor 100 μM): 1.1; SILAC ratio Scpep1 ([4]; competitor 10 μM): 1.2; SILAC ratio Scpep1 ([4]; competitor 50 μM): 1.5; SILAC ratio Scpep1 ([4]; competitor 100 μM): 1.9; SILAC ratio, Derl1 ([5]; competitor 10 μM): 1.2; SILAC ratio, Derl1 ([5]; competitor 50 μM): 1.7; SILAC ratio, Derl1 ([5]; competitor 100 μM): 1.8
5 | C=CCN(C)CCCCCCOc1ccc(C(=O)c2ccc(Br)cc2)c(F)c1 [Ro 48-8071, reference compound] | 0.9 | 1.3 | 0.9 | 0.4 | 1.1 | 
